Entries after “also recorded” stand apart in the source; their conditions may differ. Read-outs that look alike come from different tables or passages of the source.
Tests used:
[1] = Solubility of succinamic acid flavonols in 0.1 M Na2CO3 solution; type: physicochemical; details: for maximum concentrations attained: in 0.1 M Na2CO3 solution; for solubility in comparison with the unmodified moiety: qualitative
Description: Acetylcholine perchlorate was obtained from BDH Chemicals (Poole, Dorset, England). Phenylephrine and propranolol was purchased from Sigma-Aldrich Pty. Ltd. (Castle Hill, NSW, Australia). DiOHF was purchased from Indofine Chemical Co. Inc. (Belle Mead, N.J., U.S.A.). All other flavonols were synthesized in this study. […] was purchased from Cayman Chemical (Ann Arbor, Mich., U.S.A.). All chemicals were dissolved in distilled water, except the following. DiOHF was dissolved in 10% dimethyl sulphoxide (DMSO), 90% methanol, with subsequent dilutions in 50% methanol (10^−3 M), and distilled water (10^−4-10^−7 M). Succinamic acid-substituted flavonols were dissolved in 0.1 M Na2CO3 as a stock solution (B and C at 10^−1 and D at 10^−2 M), and further diluted in distilled water as required.

[2] = tested on: rat isolated thoracic aorta (endothelium-intact aortic rings), PE-induced contractions; experiment: Effect of flavonols on phenylephrine-induced vasoconstriction (organ bath); type: cell-based; details: FIG. 1a, compared with diOHF, qualitative
Source text: (§1) Vascular activity can be tested in standard organ bath assays using rat isolated thoracic aorta. The synthesized flavonols were first assayed for their ability to inhibit contractions induced by phenylephrine (PE), since it has been previously shown that flavonols can act as functional antagonists of PE. Next, the efficacy of the various flavonols would be determined in a direct relaxation assay. […] It was expected that the flavonols should reduce the magnitude of PE-induced contractions in endothelium-intact aortic rings, thus reducing the maximum response (Rmax) for PE-induced contractions.
(§2) Male Sprague-Dawley rats (200-400 g) were euthanised by exposure to 80% CO2, 20% O2, and their chests opened to isolate the thoracic aortae. After the removal of superficial connective tissues, the aorta was cut into ring segments, of approximately 2-3 mm in length. The aortic rings were then mounted between two stainless steel wires, one of which was linked to an isometric force transducer connected to a chart recorder, and the other end anchored to a glass rod submerged in a standard 10 mL organ bath. The organ bath was filled with Krebs-bicarbonate solution [composition (mM): NaCl, 118.0; KCl, 4.7; KH2PO4, 1.2; MgSO4.7H2O, 1.2; glucose, 5.0; NaHCO3, 25.0; CaCl2.2H2O, 2.5]. The bath medium was maintained at 37° C., pH 7.4 and continuously aerated with 95% O2, 5% CO2.
Aortic rings were equilibrated for 1 h at a resting tension of 1 g, then were precontracted with an isotonic, high potassium physiological salt solution (KPSS) in which all of the NaCl of the normal Krebs solution was replaced with KCl (122.7 mM), so as to achieve maximal contraction. The solution was then washed out and replaced with normal Krebs solution. […]
Aortic rings were incubated with a β-adrenoceptor antagonist, propranolol (10^−5 M), and either vehicle or flavonol (10^−4-10^−5 M) for 15 min before cumulative doses of phenylephrine (10^−9-10^−4.5 M) were added to generate a concentration-response curve to phenylephrine. Contraction responses were expressed as a percentage of KPSS-induced tension.

[3] = tested on: rat isolated thoracic aorta (aortic rings); experiment: Vasorelaxation (direct relaxation assay) in precontracted aortic rings; type: cell-based; details: for vasorelaxation activity in the relaxation assay: FIG. 1b, qualitative; for Emax: read-out: Rmax (%) maximum response in the relaxation assay
Source text: as §1, §2
Aortic rings were equilibrated for 1 h at a resting tension of 1 g, then were precontracted with an isotonic, high potassium physiological salt solution (KPSS) in which all of the NaCl of the normal Krebs solution was replaced with KCl (122.7 mM), so as to achieve maximal contraction. The solution was then washed out and replaced with normal Krebs solution. After re-equilibration, the rings were submaximally contracted with phenylephrine (PE, 10^−8-10^−7 M) and endothelial integrity was tested by a single dose of acetylcholine (Ach, 10^−5 M). Only rings that responded to Ach (≧90% relaxation) were judged endothelium intact and were used in the subsequent experiments. The aortic rings were then re-equilibrated (15 min) before the subsequent experiment.
Aortic rings were precontracted submaximally with phenylephrine (10^−8-10^−7 M) and the thromboxane mimetic, 9,11-dideoxy-9α,11α-epoxymethano-prostaglandin F2α (U46619, 10^−10-10^−9 M) to approximately 50% of KPSS-induced contraction. After stabilization of the contraction, cumulative doses of the flavonol or vehicle (10^−10-10^−4 M) were added to generate a concentration-response curve. Relaxant responses were expressed as a percentage of the precontraction tension.
The results are expressed as the mean±s.e. mean and n indicates the number of experiments (rats). Relaxation concentration-response curves for diOHF were computer fitted to a sigmoidal curve using non-linear regression (Prism version 4) to enable calculation of pEC50 of the flavonols. […] Maximum relaxation responses were compared using a one way analysis of variance (ANOVA) with post-hoc multiple comparison using Newman-Keuls test. Superoxide levels were compared using a one way analysis of variance (ANOVA) with post hoc multiple comparison using Dunnett's test.

[4] = tested on: superoxide (NADPH oxidase-driven) in isolated rat aortic rings; experiment: Lucigenin-enhanced chemiluminescence assay of superoxide in isolated aortic rings; type: cell-based; details: rat aortic rings incubated with NADPH; FIG. 2; compared with diOHF; qualitative
Description: Since the vascular activity of the synthesized flavonols was attenuated, it was of great interest to test these compounds for antioxidant activity. Antioxidant activity can be assessed in a tissue-based lucigenin-enhanced chemiluminescence assay. Isolated rat aortic rings were incubated with NADPH and the various flavonols. NADPH, a substrate for NADPH oxidase in the vasculature, increases superoxide production. Superoxide that is produced reacts with lucigenin, leading to the emission of photons, which can be quantified to give a measure of superoxide levels.
Superoxide concentrations were measured in isolated aortic rings by lucigenin-enhanced chemiluminescence. Prior to assaying, the aortic rings were incubated at 37° C. for 1 h in Krebs-EPES buffer containing DETCA (3×10^−5 M), which inactivates superoxide dismutase, NADPH (10^−4 M) and either vehicle, succinamic acid-substituted flavonol (10^−4 or 10^−5 M) or diOHF (10^−4 or 10^−5 M). Assay solutions consisting of lucigenin (5×10^−6 M), NADPH (10^−4 M) and either vehicle (DMSO), succinamic acid-substituted flavonol (10^−4 or 10^−5 M) or 3′,4′-dihydroxyflavonol (diOHF, 10^−4 or 10^−5 M), as a positive control, were prepared in Krebs-HEPES buffer [composition (mM): NaCl, 99.0; KCl, 4.7; KH2PO4, 1.0; MgSO4.7H2O, 1.2; glucose, 11.0; NaHCO3, 25.0; CaCl2.2H2O, 2.5; Na-HEPES, 20.0]. 300 μL aliquots of the assay solution were placed into separate wells on a 96-well Optiplate, which was loaded into a TopCount single photon counter (Packard Bioscience) to determine the background emission (12 cycles). After background counting was completed, one aortic ring was added per well, and photon emission was counted (12 cycles). Superoxide levels were reported as a percentage of photon emission for +NADPH control. At the conclusion of the assay, the aortic rings were dried for 48 h at 80° C. for normalization of superoxide production to dry tissue weight.
The results are expressed as the mean±s.e. mean and n indicates the number of experiments (rats). […]

[5] = rat aortic rings precontracted with phenylephrine and U46619, percentage of precontraction tension, mean ± s.e. mean

maximum concentrations attained [1]	solubility in comparison with the unmodified moiety [1]	SMILES	inhibition of PE-induced contractions (vascular activity) [2]	vasorelaxation activity in the relaxation assay [3]	Emax [3, 5] [%]	antioxidant activity (superoxide levels) [4]	Emax ([3]; Rattus norvegicus) [%]	EC50 ([3]; Rattus norvegicus, read-out: pEC50 (relaxation) (converted)) [µM]
10^−1 M	improved solubility	O=C(O)CCC(=O)Nc1ccc2oc(-c3ccccc3)c(O)c(=O)c2c1 [B, 6-(Hydroxycarbonylethylcarbonylamino)flavonol]	less effective than diOHF	weak vasorelaxation activity	47 ± 2	moderate to good antioxidant activity		
10^−1 M	improved solubility	O=C(O)CCC(=O)Nc1ccc2oc(-c3ccc(O)cc3)c(O)c(=O)c2c1 [C, 4′-Hydroxy-6-(hydroxycarbonylethylcarbonylamino)flavonol]	less effective than diOHF	weak vasorelaxation activity	80 ± 5	little effect		
10^−2 M	improved solubility	O=C(O)CCC(=O)Nc1ccc2oc(-c3ccc(O)c(O)c3)c(O)c(=O)c2c1 [D, 3′,4′-Dihydroxy-6-(hydroxycarbonylethylcarbonylamino)flavonol]	less effective than diOHF; also recorded: vascular activity was completely abolished	slight contractions were observed at high concentrations	-25 ± 3	moderate to good antioxidant activity; also recorded: superoxide levels were substantially reduced		
		O=c1c(O)c(-c2ccc(O)c(O)c2)oc2ccccc12 [diOHF, 3′,4′-dihydroxyflavonol, reference compound]					105 ± 2	4.68

Source: patent publication US7863323B1, “Flavonols” (The University of Melbourne, priority 2006, dated 2011)
